Assay results: US20130102595A1 (Curis, Inc., priority 2011, published 2013)

Key:
[1] = system: HDACs (HeLa cell nuclear extracts); assay: HDAC enzymatic activity, Biomol Color de Lys system; assay type: biochemical; conditions: 1 hour, 25° C.
Method in brief: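 HeLa nuclear extract incubated with serially diluted compound and […] artificial substrate in 50 mM Tris/Cl pH 8.0, 137 mM NaCl, 2.7 mM KCl, 1 mM MgCl2. Run 1 h at 25 °C, stopped with developer. Fluorescence read (ex 350-380, em 440-460 nm); IC50 from sigmoidal dose-response fit.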

PI3Kα (p110α/p85α) = molecular target: T1, PI3Kα (p110α/p85α) (Homo sapiens, UniProt P42336); assay: PI3Kα ADP-Glo assay; assay type: biochemical; conditions: 20 μM PIP2, 10 μM ATP, 30 minutes
T1 construct: GST (N); made in house; host or cells: Baculovirus-infected Sf9 cells
Method in brief: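 Recombinant full-length human GST-p110α/His-p85α, co-expressed in Sf9 cells, was incubated 30 min at room temperature with 20 μM PIP2 and 10 μM ATP. The buffer was 50 mM HEPES pH 7.4, 150 mM NaCl, 5 mM MgCl2, 1 mM DTT, 3 µM orthovanadate and 0.5% DMSO. ADP formed was detected by ADP-Glo luminescence.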

T1 sequence (P42336 whole entry): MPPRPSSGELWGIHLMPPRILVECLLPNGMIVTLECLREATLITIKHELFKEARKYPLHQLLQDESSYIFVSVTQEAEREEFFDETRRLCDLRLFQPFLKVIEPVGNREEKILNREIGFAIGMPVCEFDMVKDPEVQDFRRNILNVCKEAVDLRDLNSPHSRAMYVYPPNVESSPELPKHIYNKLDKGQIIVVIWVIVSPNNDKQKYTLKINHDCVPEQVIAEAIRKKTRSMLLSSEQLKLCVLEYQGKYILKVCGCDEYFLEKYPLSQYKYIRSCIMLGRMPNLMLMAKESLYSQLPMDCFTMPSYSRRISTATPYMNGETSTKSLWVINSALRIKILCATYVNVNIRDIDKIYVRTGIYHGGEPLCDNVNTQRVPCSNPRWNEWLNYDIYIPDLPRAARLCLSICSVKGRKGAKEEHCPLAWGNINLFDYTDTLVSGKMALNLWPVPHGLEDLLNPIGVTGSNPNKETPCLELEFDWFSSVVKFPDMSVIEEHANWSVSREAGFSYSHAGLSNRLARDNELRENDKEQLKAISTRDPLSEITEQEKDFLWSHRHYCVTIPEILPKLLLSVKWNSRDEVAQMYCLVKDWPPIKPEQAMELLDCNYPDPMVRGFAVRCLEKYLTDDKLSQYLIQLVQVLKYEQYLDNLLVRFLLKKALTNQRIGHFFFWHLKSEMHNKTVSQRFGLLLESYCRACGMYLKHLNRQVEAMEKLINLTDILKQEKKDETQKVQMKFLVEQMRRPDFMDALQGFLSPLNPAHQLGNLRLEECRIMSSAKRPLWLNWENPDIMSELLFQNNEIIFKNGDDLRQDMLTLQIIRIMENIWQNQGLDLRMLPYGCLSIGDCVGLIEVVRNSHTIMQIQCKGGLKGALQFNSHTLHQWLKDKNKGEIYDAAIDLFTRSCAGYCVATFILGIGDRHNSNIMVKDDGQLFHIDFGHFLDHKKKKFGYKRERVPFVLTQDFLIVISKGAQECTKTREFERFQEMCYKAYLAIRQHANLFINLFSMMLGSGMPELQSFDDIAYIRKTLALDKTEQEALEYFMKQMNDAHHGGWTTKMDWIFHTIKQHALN
T1 sequence (P27986 whole entry partner): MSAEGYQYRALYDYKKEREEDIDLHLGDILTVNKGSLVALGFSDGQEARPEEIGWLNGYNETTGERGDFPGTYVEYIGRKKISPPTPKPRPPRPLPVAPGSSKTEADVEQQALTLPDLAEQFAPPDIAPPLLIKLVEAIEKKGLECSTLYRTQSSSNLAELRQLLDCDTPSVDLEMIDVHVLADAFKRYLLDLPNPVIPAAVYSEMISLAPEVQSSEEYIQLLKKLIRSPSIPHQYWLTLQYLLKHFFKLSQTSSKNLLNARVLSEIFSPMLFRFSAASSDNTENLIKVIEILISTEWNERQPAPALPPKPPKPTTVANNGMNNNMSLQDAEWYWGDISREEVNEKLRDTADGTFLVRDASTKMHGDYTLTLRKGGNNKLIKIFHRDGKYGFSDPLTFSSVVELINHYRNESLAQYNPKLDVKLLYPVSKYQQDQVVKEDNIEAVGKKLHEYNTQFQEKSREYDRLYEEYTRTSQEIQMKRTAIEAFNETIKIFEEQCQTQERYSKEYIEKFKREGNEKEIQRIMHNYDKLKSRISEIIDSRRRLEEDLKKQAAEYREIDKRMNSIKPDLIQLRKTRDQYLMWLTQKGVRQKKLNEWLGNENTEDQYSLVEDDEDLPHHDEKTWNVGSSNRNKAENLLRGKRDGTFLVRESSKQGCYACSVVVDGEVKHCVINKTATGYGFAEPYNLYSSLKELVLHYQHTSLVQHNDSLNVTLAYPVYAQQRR

Row | Structure (SMILES) | melting point [°C] | IC50 [1] [nM] | IC50 (PI3Kα (p110α/p85α)) [nM]
1 | CS(=O)(=O)N1CCN(Cc2cc3nc(-c4cccc5c4cnn5CCCCC(=O)NO)nc(N4CCOCC4)c3s2)CC1 [Compound 3, N-hydroxy-5-(4-(6-((4-(methylsulfonyl)piperazin-1-yl)methyl)-4-morpholinothieno[3,2-d]pyrimidin-2-yl)-1H-indazol-1-yl)pentanamide] | 139 to 143 |  | 
2 | CS(=O)(=O)N1CCN(Cc2cc3nc(-c4cccc5nn(CCCCC(=O)NO)cc45)nc(N4CCOCC4)c3s2)CC1 [Compound 7, N-hydroxy-5-(4-(6-((4-(methylsulfonyl)piperazin-1-yl)methyl)-4-morpholinothieno[3,2-d]pyrimidin-2-yl)-2H-indazol-2-yl)pentanamide] | 146 to 169 | 100 to 1000 | 100 to 1000
3 | CS(=O)(=O)N1CCN(Cc2cc3nc(-c4cccc5nn(CCCCCC(=O)NO)cc45)nc(N4CCOCC4)c3s2)CC1 [Compound 8, N-hydroxy-6-(4-(6-((4-(methylsulfonyl)piperazin-1-yl)methyl)-4-morpholinothieno[3,2-d]pyrimidin-2-yl)-2H-indazol-2-yl)hexanamide] | 124 to 125 | < 100 | > 10000
4 | CS(=O)(=O)N1CCN(Cc2cc3nc(-c4cccc5nn(CCCCCCC(=O)NO)cc45)nc(N4CCOCC4)c3s2)CC1 [Compound 9, N-hydroxy-7-(4-(6-((4-(methylsulfonyl)piperazin-1-yl)methyl)-4-morpholinothieno[3,2-d]pyrimidin-2-yl)-2H-indazol-2-yl)heptanamide] | 123 to 126 | < 100 | > 10000
5 | O=C(CCCCN1CCN(Cc2cc3nc(-c4cccc5[nH]ncc45)nc(N4CCOCC4)c3s2)CC1)NO [Compound 11, 5-(4-((2-(1H-indazol-4-yl)-4-morpholinothieno[3,2-d]pyrimidin-6-yl)methyl)piperazin-1-yl)-N-hydroxypentanamide] | 125 to 127 | 1000 to 10000 | 
6 | O=C(CCCCCN1CCN(Cc2cc3nc(-c4cccc5[nH]ncc45)nc(N4CCOCC4)c3s2)CC1)NO [Compound 12] | 123 to 124 | 100 to 1000 | < 100
7 | O=C(CCCCCCN1CCN(Cc2cc3nc(-c4cccc5[nH]ncc45)nc(N4CCOCC4)c3s2)CC1)NO [Compound 13, 7-(4-((2-(1H-indazol-4-yl)-4-morpholinothieno[3,2-d]pyrimidin-6-yl)methyl)piperazin-1-yl)-N-hydroxyheptanamide] | 119 to 122 | 100 to 1000 | 100 to 1000
8 | CS(=O)(=O)N1CCN(Cc2cc3nc(-c4cccc5[nH]ncc45)nc(N4CCN(CCCCC(=O)NO)CC4)c3s2)CC1 [Compound 30, 5-(4-(2-(1H-indazol-4-yl)-6-((4-(methylsulfonyl)piperazin-1-yl)methyl)thieno[3,2-d]pyrimidin-4-yl)piperazin-1-yl)-N-hydroxypentanamide] | 142 to 145 | 100 to 1000 | > 10000
9 | CS(=O)(=O)N1CCN(Cc2cc3nc(-c4cccc5[nH]ncc45)nc(N4CCN(CCCCCC(=O)NO)CC4)c3s2)CC1 [Compound 31, 6-(4-(2-(1H-indazol-4-yl)-6-((4-(methylsulfonyl)piperazin-1-yl)methyl)thieno[3,2-d]pyrimidin-4-yl)piperazin-1-yl)-N-hydroxyhexanamide] | 140 to 145 | 100 to 1000 | > 10000
10 | CS(=O)(=O)N1CCN(Cc2cc3nc(-c4cccc5[nH]ncc45)nc(N4CCN(CCCCCCC(=O)NO)CC4)c3s2)CC1 [Compound 32, 7-(4-(2-(1H-indazol-4-yl)-6-((4-(methylsulfonyl)piperazin-1-yl)methyl)thieno[3,2-d]pyrimidin-4-yl)piperazin-1-yl)-N-hydroxyheptanamide] | 131 to 134 | 100 to 1000 | > 10000
11 | O=C(CCCNCc1cc2nc(-c3cccc4[nH]ncc34)nc(N3CCOCC3)c2s1)NO [Compound 41, 4-((2-(1H-indazol-4-yl)-4-morpholinothieno[3,2-d]pyrimidin-6-yl)methylamino)-N-hydroxybutanamide] | 149 to 152 | < 100 | 100 to 1000
12 | O=C(CCCCNCc1cc2nc(-c3cccc4[nH]ncc34)nc(N3CCOCC3)c2s1)NO [Compound 42, 5-((2-(1H-indazol-4-yl)-4-morpholinothieno[3,2-d]pyrimidin-6-yl)methylamino)-N-hydroxypentanamide] | 145 to 147 | < 100 | 1000 to 10000
13 | O=C(CCCCCCNCc1cc2nc(-c3cccc4[nH]ncc34)nc(N3CCOCC3)c2s1)NO [Compound 44, 7-((2-(1H-indazol-4-yl)-4-morpholinothieno[3,2-d]pyrimidin-6-yl)methylamino)-N-hydroxyheptanamide] | 188 to 190 | 100 to 1000 | < 100
14 | O=C(NO)c1ccc(NCc2cc3nc(-c4cccc5[nH]ncc45)nc(N4CCOCC4)c3s2)nc1 [Compound 76, 6-((2-(1H-indazol-4-yl)-4-morpholinothieno[3,2-d]pyrimidin-6-yl)methylamino)-N-hydroxynicotinamide] | 218 to 220 | < 100 | < 100
15 | O=C(NO)c1ccc(NCc2cc3nc(-c4cccc5[nH]ncc45)nc(N4CCOCC4)c3s2)cc1 [Compound 78, 4-((2-(1H-indazol-4-yl)-4-morpholinothieno[3,2-d]pyrimidin-6-yl)methylamino)-N-hydroxybenzamide] | 180 to 183 | < 100 | 100 to 1000
16 | O=C(/C=C/c1ccc(NCc2cc3nc(-c4cccc5[nH]ncc45)nc(N4CCOCC4)c3s2)cc1)NO [Compound 80, (E)-3-(4-((2-(1H-indazol-4-yl)-4-morpholinothieno[3,2-d]pyrimidin-6-yl)methylamino)phenyl)-N-hydroxyacrylamide] | > 300 | 100 to 1000 | < 100
17 | CN(Cc1cc2nc(-c3cccc4[nH]ncc34)nc(N3CCOCC3)c2s1)c1ccc(/C=C/C(=O)NO)cc1 [Compound 81, (E)-3-(4-(((2-(1H-indazol-4-yl)-4-morpholinothieno[3,2-d]pyrimidin-6-yl)methyl)(methyl)amino)phenyl)-N-hydroxyacrylamide] | 188 to 190 | 1000 to 10000 | < 100
18 | CC(C)(C)CN(Cc1cc2nc(-c3cccc4[nH]ncc34)nc(N3CCOCC3)c2s1)c1ncc(C(=O)NO)cn1 [Compound 83, 2-(((2-(1H-indazol-4-yl)-4-morpholinothieno[3,2-d]pyrimidin-6-yl)methyl)(neopentyl)amino)-N-hydroxypyrimidine-5-carboxamide] | 240 to 242 | 1000 to 10000 | 100 to 1000
19 | CCCN(Cc1cc2nc(-c3cccc4[nH]ncc34)nc(N3CCOCC3)c2s1)c1ncc(C(=O)NO)cn1 [Compound 84, 2-(((2-(1H-indazol-4-yl)-4-morpholinothieno[3,2-d]pyrimidin-6-yl)methyl)(propyl)amino)-N-hydroxypyrimidine-5-carboxamide] | 224 to 226 | < 100 | < 100
20 | CCCCN(Cc1cc2nc(-c3cccc4[nH]ncc34)nc(N3CCOCC3)c2s1)c1ncc(C(=O)NO)cn1 [Compound 85, 2-(((2-(1H-indazol-4-yl)-4-morpholinothieno[3,2-d]pyrimidin-6-yl)methyl)(butyl)amino)-N-hydroxypyrimidine-5-carboxamide] | 234 to 236 | < 100 | 100 to 1000
21 | CC(C)CN(Cc1cc2nc(-c3cccc4[nH]ncc34)nc(N3CCOCC3)c2s1)c1ncc(C(=O)NO)cn1 [Compound 93, 2-(((2-(1H-indazol-4-yl)-4-morpholinothieno[3,2-d]pyrimidin-6-yl)methyl)(isobutyl)amino)-N-hydroxypyrimidine-5-carboxamide] | 196 to 198 | 100 to 1000 | 100 to 1000
22 | CN(CCCCCC(=O)NO)Cc1cc2nc(-c3cccc4[nH]ncc34)nc(N3CCOCC3)c2s1 [Compound 103, 6-(((2-(1H-indazol-4-yl)-4-morpholinothieno[3,2-d]pyrimidin-6-yl)methyl)(methyl)amino)-N-hydroxyhexanamide] | 115 to 118 | < 100 | 100 to 1000
23 | CN(CCCCCCC(=O)NO)Cc1cc2nc(-c3cccc4[nH]ncc34)nc(N3CCOCC3)c2s1 [Compound 104, 7-(((2-(1H-indazol-4-yl)-4-morpholinothieno[3,2-d]pyrimidin-6-yl)methyl)(methyl)amino)-N-hydroxyheptanamide] | 131 to 133 | 100 to 1000 | < 100
24 | CN(Cc1cc2nc(-c3ccc(N)cc3)nc(N3CCOCC3)c2s1)Cc1nc2cc(/C=C/C(=O)NO)ccc2n1C [Compound 327] |  | 100 to 1000 | 1000 to 10000
25 | CNc1ccc(-c2nc(N3CCOCC3)c3sc(CNCc4nc5cc(/C=C/C(=O)NO)ccc5n4C)cc3n2)cn1 [Compound 328] |  | 100 to 1000 | < 100
26 | CNc1ccc(-c2nc(N3CCOCC3)c3sc(CN(C)Cc4nc5cc(/C=C/C(=O)NO)ccc5n4C)cc3n2)cn1 [Compound 329] |  | 100 to 1000 | < 100
